The data set in a line: Aqueous solubility of carfilzomib. It is filed as physicochemical.

Values after ≈ are worked out from the molar mass of the structure shown. Like-named read-outs stand apart in the source and are kept apart here. Bounds are passed on as bounds.

We go through one molecule from patent US20150209281A1, “LIPOSOMAL COMPOSITIONS OF EPOXYKETONE-BASED PROTEASOME INHIBITORS” (ONYX THERAPEUTICS, INC., priority 2012, published 2015).

By solubility is commonly meant the concentration that dissolves in the medium under given conditions.

With `CC(C)C[C@H](NC(=O)[C@H](CCc1ccccc1)NC(=O)CN1CCOCC1)C(=O)N[C@@H](Cc1ccccc1)C(=O)N[C@@H](CC(C)C)C(=O)[C@@]1(C)CO1` [carfilzomib], the solubility is approximately 1800 µg/mL (≈ 2500 µM) (30 °C, simulated gastric fluid, thermodynamic from solid, 0.1M HCl aqueous solution, ~pH 1, read-out: Approximate carfilzomib solubility at pH 1) and less than 1 µg/mL (aqueous medium, read-out: aqueous solubility).
